One data set has as its target T1, Aromatase (Homo sapiens, UniProt P11511).
T1 sequence (P11511 whole entry): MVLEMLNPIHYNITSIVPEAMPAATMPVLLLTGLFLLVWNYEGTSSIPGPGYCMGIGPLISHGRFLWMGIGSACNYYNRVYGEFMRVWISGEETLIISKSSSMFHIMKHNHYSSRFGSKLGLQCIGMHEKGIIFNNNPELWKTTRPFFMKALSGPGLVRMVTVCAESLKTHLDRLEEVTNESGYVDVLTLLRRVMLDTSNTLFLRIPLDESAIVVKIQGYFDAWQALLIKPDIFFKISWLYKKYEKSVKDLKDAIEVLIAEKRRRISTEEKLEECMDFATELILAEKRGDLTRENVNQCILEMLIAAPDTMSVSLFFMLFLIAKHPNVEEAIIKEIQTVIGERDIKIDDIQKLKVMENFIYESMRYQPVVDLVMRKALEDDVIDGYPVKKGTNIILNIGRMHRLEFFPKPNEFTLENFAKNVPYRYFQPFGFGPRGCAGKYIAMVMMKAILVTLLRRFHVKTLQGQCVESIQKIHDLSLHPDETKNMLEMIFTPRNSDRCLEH

In the next data set the test system is MCF7. Nature of the data set: Antiproliferative activity against human MCF7 cells assessed as cell viability at 10^-4 M after 6 hrs by MTT assay relative to control. It is filed as functional. Conditions: MCF7, 6 h, read-out: Activity. Background: Tetrazolium dyes change colour on reduction, which living cells bring about.
Data set [1] in a line: Antiproliferative activity against HEK293 cells assessed as cell viability at 10^-4 M after 6 hrs by MTT assay relative to control. The class given is cell-based. The conditions noted are these: human, read-out: Activity.

A value given as a limit tells only on which side of the number the result lay.

Description for Aromatase: Inhibition of aromatase (unknown origin)

As for `c1cncc(-c2csc(-c3cccnc3)n2)c1`, the IC50 – broadly, the concentration that gives 50% inhibition – against Aromatase turned out to be 4 nM. For `c1cncc(-c2nsc(-c3cccnc3)n2)c1`, the midpoint of inhibition on Aromatase, the IC50, lay at 240 nM. Same read-out and setting: with `c1ccc(-c2nsc(-c3ccccc3)n2)cc1` the figure was over 50000 nM. As for `COc1ccccc1-c1csc(-c2ncccn2)n1`, in the data set with MCF7, the viability at 100 µM stood at 130%. Further, the viability at 6 h, 100 µM in data set [1] came to 87%.

`c1cnc(-c2nc(-c3ccco3)cs2)nc1`: the viability at 100 µM in the data set with MCF7 was 76%. The viability at 6 h, 100 µM in data set [1] amounted to 59%. With `COc1ccc(-c2csc(-c3ncccn3)n2)cc1`, in the data set with MCF7, the viability at 100 µM came out at 127%. The viability at 6 h, 100 µM in data set [1] is 101%. As to `Clc1cccc(-c2csc(-c3ncccn3)n2)c1`, the viability at 100 µM in the data set on MCF7 was found to be 86.9%. Further, in data set [1], the viability at 6 h, 100 µM is 107%.

Consider `c1ccc(-c2csc(-c3ncccn3)n2)nc1`, for which the viability at 100 µM in the data set with MCF7 turned out to be 74.2%. Further, in data set [1], the viability at 6 h, 100 µM came to 101%. Take `c1cnc(-c2nc(-c3cc4ccccc4s3)cs2)nc1`: the viability at 100 µM with MCF7 was found to be 120%. Also, in data set [1], the viability at 6 h, 100 µM was 83.5%. As to `Oc1ccc(-c2csc(-c3ncccn3)n2)cc1`, in the data set with MCF7, the viability at 100 µM worked out at 227%. Besides, the viability at 6 h, 100 µM in data set [1] stood at 94%. The like results for `Oc1ccccc1-c1csc(-c2ncccn2)n1` were, in that order, 129% and 131%. For `c1cnc(-c2nc(-c3ccncc3)cs2)nc1` the same measures were 76.6% and 101%. As to `c1cnc(-c2nc(-c3cccs3)cs2)nc1`, the viability at 100 µM in the data set on MCF7 turned out to be 136%. The viability at 6 h, 100 µM in data set [1] stood at 77%. The like results for `Oc1cccc(-c2csc(-c3ncccn3)n2)c1` were, in that order, 112% and 113%. `Cn1c(-c2csc(-c3ncccn3)n2)nc2ccccc21`: the viability at 100 µM with MCF7 came out at 128%. For the same compound, in data set [1], the viability at 6 h, 100 µM came to 102%. The like results for `Cc1ccc(O)c(-c2csc(-c3ncccn3)n2)c1` were, in that order, 195% and 91.8%.

Take `c1cnc(-c2nc(-c3nc4ccccc4s3)cs2)nc1`: the viability at 100 µM in the data set on MCF7 is 60.7%. The viability at 6 h, 100 µM in data set [1] stood at 117%. With `c1cnc(-c2nc(-c3cccnc3)cs2)nc1`, in the data set on MCF7, the viability at 100 µM came to 75.5%. In addition, the viability at 6 h, 100 µM in data set [1] is 89%. The like results for `Oc1ccc(Cl)cc1-c1csc(-c2ncccn2)n1` were, in that order, 162% and 78%. As for `COc1cccc(-c2csc(-c3ncccn3)n2)c1`, the viability at 100 µM in the data set on MCF7 was determined as 137%. In data set [1], the viability at 6 h, 100 µM came out at 95%.

With `c1cnc(-c2nc(-c3cc4ccccc4o3)cs2)nc1`, the viability at 100 µM in the data set on MCF7 was found to be 131%. Also, in data set [1], the viability at 6 h, 100 µM stood at 108%. Turning to `Clc1ccccc1-c1csc(-c2ncccn2)n1`, the viability at 100 µM in the data set on MCF7 turned out to be 125%. The viability at 6 h, 100 µM in data set [1] was 89.4%. Turning to `COc1ccc(O)c(-c2csc(-c3ncccn3)n2)c1`, the viability at 100 µM with MCF7 turned out to be 208%. For the same compound, in data set [1], the viability at 6 h, 100 µM was 81.3%. With `Clc1ccc(-c2csc(-c3ncccn3)n2)cc1`, the viability at 100 µM in the data set with MCF7 worked out at 146%. Also, the viability at 6 h, 100 µM in data set [1] was 101%.

For the origin of these results see ChEMBL document CHEMBL4219133, “Studies on non-steroidal inhibitors of aromatase enzyme; 4-(aryl/heteroaryl)-2-(pyrimidin-2-yl)thiazole derivatives” (Bioorg Med Chem, 2018).
